We go through two substances from US8895502B2, “β2-glycoprotein I peptide inhibitors” (Kansas State University Research Foundation, priority 2010, dated 2014).

For assay [1], the system named is thioglycollate-elicited macrophages, IL-6. Kind of assay: β2-GPI stimulated macrophage IL-6 production. The class given is cell-based. The following applies: mouse β2-GPI 10 μg/mL, peptide 40 μM, 18 hours. As for the experimental part: C57Bl/6 mice were injected i.p. with 1 mL thioglycollate (4%) 4 days prior to peritoneal lavage. Peritoneal exudate macrophages or the B cell line, LK35.2, were seeded at 2×10^6 cells/mL in 24-well or 96-well plates. After macrophage adherence, both cell types were treated with mouse β2-GPI (10 μg/mL) with or without peptide (40 μM). Additional cells were unstimulated as a negative control or stimulated with 10 μg/mL LPS (E. coli 055B5) as a positive control. Supernatants were collected 18-20 hours after stimulation and analyzed for nitrite by Griess reagent (Hoffman & Fleming, Cell Biochem. Funct. 28:686-694 (2010)) or IL-6 by Milliplex MAP kit (Millipore) following the manufacturer's instructions using a Luminex 200 with xPONENT 3.1 and Analyst software (Millipore).

Another assay deals with CD31. Kind of assay: B16-F10 melanoma model, CD31 expression in tumors. It is filed as in vivo, mouse. How it is done: mRNA was isolated from the tumor samples that were homogenized in Trizol. The concentration of mRNA was evaluated by nanodrop and the purity by bioanalyzer. cDNA was then synthesized using random primers with the Quanta cDNA synthesis kit. Real-time PCR was then performed on a 1:100 dilution of cDNA for 18s rRNA. After 3 min denaturing at 95° C., the real-time PCR reaction consisted of 50 cycles (of 10 sec at 95° C., 20 sec at 58° C., and 10 sec at 72° C.), followed by a melt curve increasing at intervals of 0.5° from 60° C. to 95° C. RT-PCR was also performed on cDNA samples for CD31 and endoglin which are endothelial markers of angiogenesis. Fold change of each gene was determined by subtracting 18s for normalization of RNA and fold change was determined by comparing to original cells which were set to 1. Primers were obtained from Integrated DNA Technology (Coraville, Iowa) and sequences are in the table below.
OCT cryopreserved tumor sections were cut and stained similar to intestinal sections in Example 1. CD31 and Pan-endothelial expression was detected by FITC conjugated rat anti-mouse CD31 or pan-endothelial antibodies (Biolegend, San Diego, Calif.). Each experiment contained serial sections stained with the appropriate isotype control antibodies. All slides were mounted with ProLong Gold (Invitrogen) and images were obtained and analyzed as described in Example 1.

Ends that are not written are not given here.

For the substance “H-KKCSYTVEAHCRDGTIEIPSCFKEHS-OH (cysteine pairing not given here) [peptide 305, 10]”, the “β2-GPI induced IL-6 production” value in assay [1] was “attenuated”.
In the case of “H-IHFYSKNKEKKSSYTVEAHSRDGTI-OH [peptide 296Cys-Ser]”, in the assay with CD31 (immunohistochemistry of tumors), the “protein expression of both endothelial markers” value was “decreased”. Also, the “CD31 RNA expression within the tumors” value with CD31 (peptide treatment on days 1-4, 6, and 8, qRT-PCR) is recorded as “attenuated”.
